In PubChem BioAssay AID330 (DTP/NCI, 2004):
Several values for one entry are separate records, joined by “and”; a condition that tells them apart may be missing. Equal entries are not always repeated. Inconclusive results and toxic doses are left out. How the source made its calls: active means survival T/C of 150% or more; inactive means T/C below 125% in these data.

System: P388 leukemia ip, CD2F1 mice, survival T/C
Experiment: NCI In Vivo Anticancer Drug Screen. Data for tumor model P388 Leukemia (intraperitoneal) in CD2F1 (CDF1) mice
Details: endpoint: median survival time, higher = longer survival
Outline: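 Mice carrying the transplanted tumor received test compound or vehicle. Survival was recorded in each group, and the value is the treated-group measurement divided by that of the vehicle-treated control group.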

[1] = dose: 50.0 mg/kg/injection, schedule: Q01DX009 (ip), vehicle: saline with Tween-80
[2] = dose: 100.0 mg/kg/injection, schedule: Q01DX009 (ip), vehicle: saline with Tween-80
[3] = dose: 200.0 mg/kg/injection, schedule: Q01DX009 (ip), vehicle: saline with Tween-80
[4] = dose: 50.0 mg/kg/injection, schedule: Q01DX009 (ip), vehicle: Klucel (hydroxypropylcellulose) (HPC)
[5] = dose: 100.0 mg/kg/injection, schedule: Q01DX009 (ip), vehicle: Klucel (hydroxypropylcellulose) (HPC)
[6] = dose: 200.0 mg/kg/injection, schedule: Q01DX009 (ip), vehicle: Klucel (hydroxypropylcellulose) (HPC)
[7] = dose: 60.0 mg/kg/injection, schedule: Q01DX005 (ip), vehicle: saline with Tween-80
[8] = dose: 120.0 mg/kg/injection, schedule: Q01DX005 (ip), vehicle: saline with Tween-80
[9] = dose: 240.0 mg/kg/injection, schedule: Q01DX005 (ip), vehicle: saline with Tween-80
[10] = dose: 50.0 mg/kg/injection, schedule: Q01DX005 (ip), vehicle: saline with Tween-80
[11] = dose: 100.0 mg/kg/injection, schedule: Q01DX005 (ip), vehicle: saline with Tween-80
[12] = dose: 200.0 mg/kg/injection, schedule: Q01DX005 (ip), vehicle: saline with Tween-80
[13] = dose: 6.25 mg/kg/injection, schedule: Q01DX009 (ip), vehicle: saline with Tween-80
[14] = dose: 12.5 mg/kg/injection, schedule: Q01DX009 (ip), vehicle: saline with Tween-80
[15] = dose: 25.0 mg/kg/injection, schedule: Q01DX009 (ip), vehicle: saline with Tween-80
[16] = dose: 50.0 mg/kg/injection, schedule: Q01DX005 (ip), vehicle: Klucel (hydroxypropylcellulose) (HPC)
[17] = dose: 100.0 mg/kg/injection, schedule: Q01DX005 (ip), vehicle: Klucel (hydroxypropylcellulose) (HPC)
[18] = dose: 200.0 mg/kg/injection, schedule: Q01DX005 (ip), vehicle: Klucel (hydroxypropylcellulose) (HPC)

Measured: T/C

CC(C)(C)NCC(O)c1ccc(O)c(NC=O)c1 (stereo unspecified)
inactive: [1] 110 % of control | [2] 100 % of control | [3] 102 % of control

CC(=O)c1ccc2ccccc2c1OC(=O)c1cccnc1
inactive: dose: 6.25 mg/kg/injection, schedule: Q01DX009 (ip), vehicle: distilled water + Tween-80 100 % of control | dose: 12.5 mg/kg/injection, schedule: Q01DX009 (ip), vehicle: distilled water + Tween-80 104 % of control | dose: 25.0 mg/kg/injection, schedule: Q01DX009 (ip), vehicle: distilled water + Tween-80 111 % of control and 94 % of control | dose: 50.0 mg/kg/injection, schedule: Q01DX009 (ip), vehicle: distilled water + Tween-80 107 % of control and 111 % of control | dose: 100.0 mg/kg/injection, schedule: Q01DX009 (ip), vehicle: distilled water + Tween-80 117 % of control and 119 % of control | dose: 200.0 mg/kg/injection, schedule: Q01DX009 (ip), vehicle: distilled water + Tween-80 121 % of control

COc1cc2c(cc1OC)CC[N+](CCC[N+](C)(C)C)=C2
inactive: dose: 12.5 mg/kg/injection, schedule: Q01DX009 (ip), vehicle: saline 104 % of control | dose: 25.0 mg/kg/injection, schedule: Q01DX009 (ip), vehicle: saline 95 % of control | dose: 50.0 mg/kg/injection, schedule: Q01DX009 (ip), vehicle: saline 97 % of control | dose: 100.0 mg/kg/injection, schedule: Q01DX009 (ip), vehicle: saline 89 % of control

COC(=O)C(C(=O)OC)=S1C(Cl)=CC=C1Cl
inactive: dose: 100.0 mg/kg/injection, schedule: Q04DX003 (ip), vehicle: saline 108 % of control | dose: 200.0 mg/kg/injection, schedule: Q04DX003 (ip), vehicle: saline 104 % of control | dose: 400.0 mg/kg/injection, schedule: Q04DX003 (ip), vehicle: saline 106 % of control

CC(=O)OC1SC(OC(C)=O)C2OC(=O)OC12 (stereo unspecified)
inactive: [1] 101 % of control | [2] 108 % of control | [3] 100 % of control

CCCCCCCC/C=C/CCCCCCCC(=O)N(C)CCOC(=O)C(C)(C)C
inactive: [4] 122 % of control and 95 % of control | [5] 106 % of control and 120 % of control | [6] 103 % of control and 114 % of control

C/C(=N\Oc1ncc([N+](=O)[O-])c(O/N=C(\C)c2ccccc2)n1)c1ccccc1
inactive: [7] 100 % of control | [8] 88 % of control | [9] 91 % of control

NNC(=O)c1nnc(N)o1
inactive: [7] 106 % of control | [8] 106 % of control | [9] 95 % of control

O=C1CCCCCCCCCCC1[N+](=O)[O-] (stereo unspecified)
inactive: [10] 95 % of control | [11] 92 % of control | [12] 93 % of control

CC(C)CC([NH-])C(=O)O.[C-]#[O+].[C-]#[O+].[Rh] (stereo unspecified)
inactive: [13] 113 % of control | [14] 115 % of control | [15] 109 % of control

O=[N+]([O-])c1cnccc1Nc1ccncc1
inactive: dose: 100.0 mg/kg/injection, schedule: Q01DX001 (ip), vehicle: saline with Tween-80 100 % of control | dose: 200.0 mg/kg/injection, schedule: Q01DX001 (ip), vehicle: saline with Tween-80 100 % of control

CO[C@@H]1[C@H](O)CC[C@]2(CO2)[C@H]1[C@@]1(C)O[C@@H]1CC=C(C)C
inactive: dose: 3.13 mg/kg/injection, schedule: Q01DX009 (ip), vehicle: saline with Tween-80 99 % of control and 120 % of control | [13] 99 % of control and 116 % of control | [14] 99 % of control and 106 % of control | [15] 108 % of control and 120 % of control | dose: 33.3 mg/kg/injection, schedule: Q01DX009 (ip), vehicle: saline with Tween-80 99 % of control

CCCCCCCCCCCCCCCc1ccc(C(=O)C[n+]2ccccc2)cc1
inactive: dose: 6.25 mg/kg/injection, schedule: Q04DX003 (ip), vehicle: saline with Tween-80 109 % of control | dose: 12.5 mg/kg/injection, schedule: Q04DX003 (ip), vehicle: saline with Tween-80 118 % of control | dose: 16.5 mg/kg/injection, schedule: Q04DX003 (ip), vehicle: saline with Tween-80 95 % of control | dose: 25.0 mg/kg/injection, schedule: Q04DX003 (ip), vehicle: saline with Tween-80 100 % of control

C=CCN(CC=C)C(=O)Nc1cc(OC)ccc1OC
inactive: [7] 97 % of control | [8] 97 % of control | [9] 103 % of control

Cc1ccc(S(=O)(=O)N(N)CCC#N)cc1
inactive: [16] 94 % of control | [17] 97 % of control | [18] 96 % of control

C1CCC2CC2C2(CC1)CO2 (stereo unspecified)
inactive: dose: 100.0 mg/kg/injection, schedule: Q04DX003 (ip), vehicle: Klucel (hydroxypropylcellulose) (HPC) 106 % of control | dose: 200.0 mg/kg/injection, schedule: Q04DX003 (ip), vehicle: Klucel (hydroxypropylcellulose) (HPC) 108 % of control | dose: 400.0 mg/kg/injection, schedule: Q04DX003 (ip), vehicle: Klucel (hydroxypropylcellulose) (HPC) 115 % of control

NC(=O)CCC(NS(=O)(=O)c1ccc(NC(=O)c2ccc(Cl)cc2)cc1)C(=O)O (stereo unspecified)
inactive: [16] 104 % of control | [17] 102 % of control | [18] 102 % of control

COc1cc(/C=C/C(NC(C)=O)c2cccc(O)c(=O)c2)cc(OC)c1OC (stereo unspecified)
inactive: dose: 12.5 mg/kg/injection, schedule: Q01DX009 (ip), vehicle: Klucel (hydroxypropylcellulose) (HPC) 90 % of control | dose: 25.0 mg/kg/injection, schedule: Q01DX009 (ip), vehicle: Klucel (hydroxypropylcellulose) (HPC) 93 % of control | [4] 98 % of control | [5] 107 % of control | [6] 116 % of control

Cc1cc(OCCCC[N+](C)(C)Cc2ccc(Br)o2)c(C(C)C)cc1Cl
inactive: dose: 1.56 mg/kg/injection, schedule: Q01DX009 (ip), vehicle: saline 91 % of control | dose: 3.13 mg/kg/injection, schedule: Q01DX009 (ip), vehicle: saline 100 % of control | dose: 6.25 mg/kg/injection, schedule: Q01DX009 (ip), vehicle: saline 103 % of control and 105 % of control

Cc1cc(Br)ccc1N=c1scc(-c2ccc(Cl)cc2)n1C
inactive: [4] 95 % of control | [5] 93 % of control | [6] 91 % of control

C=C(C)[C@H]1C[C@]2(C)[C@@H](C)CC(=O)C[C@H]2[C@@H](OC(=O)/C(C)=C\C)[C@@H]1OC(=O)/C(C)=C/C
inactive: dose: 130.0 mg/kg/injection, schedule: Q01DX001 (ip), vehicle: Klucel (hydroxypropylcellulose) (HPC) 100 % of control | dose: 260.0 mg/kg/injection, schedule: Q01DX001 (ip), vehicle: Klucel (hydroxypropylcellulose) (HPC) 99 % of control | dose: 520.0 mg/kg/injection, schedule: Q01DX001 (ip), vehicle: Klucel (hydroxypropylcellulose) (HPC) 100 % of control

Nc1nc(SCc2cccc(Br)c2)c2ncn(C3OC(CO)C(O)C3O)c2n1 (stereo unspecified)
inactive: [1] 109 % of control | dose: 66.0 mg/kg/injection, schedule: Q01DX009 (ip), vehicle: saline with Tween-80 100 % of control | [3] 104 % of control

CNC(=O)CCC(NS(=O)(=O)c1ccccc1)C(=O)O (stereo unspecified)
inactive: [16] 107 % of control | [17] 96 % of control | [18] 95 % of control

Cc1c(C)c(Cl)c(C)c(C)c1Cl
inactive: dose: 5.0 mg/kg/injection, schedule: Q01DX009 (ip), vehicle: saline with Tween-80 95 % of control | dose: 10.0 mg/kg/injection, schedule: Q01DX009 (ip), vehicle: saline with Tween-80 100 % of control | dose: 20.0 mg/kg/injection, schedule: Q01DX009 (ip), vehicle: saline with Tween-80 100 % of control

Cc1ccc(S(=O)(=O)Oc2ccc3oc4c(CO)ccc(NCCN(C)C)c4c(=O)c3c2)cc1
inactive: [10] 97 % of control | [11] 96 % of control | [12] 96 % of control

COc1cc2c[n+]3c4c(cccc4c2cc1OC)CCC3
inactive: dose: 12.5 mg/kg/injection, schedule: Q01DX009 (ip), vehicle: water 109 % of control | dose: 25.0 mg/kg/injection, schedule: Q01DX009 (ip), vehicle: water 108 % of control | dose: 50.0 mg/kg/injection, schedule: Q01DX009 (ip), vehicle: water 110 % of control

NC(Cc1ccccc1I)c1nn[nH]n1 (stereo unspecified)
inactive: [15] 107 % of control | [1] 102 % of control and 105 % of control and 111 % of control | [2] 98 % of control and 100 % of control and 95 % of control | [3] 110 % of control and 97 % of control | dose: 400.0 mg/kg/injection, schedule: Q01DX009 (ip), vehicle: saline with Tween-80 100 % of control and 96 % of control
